Measurements published in ChEMBL document CHEMBL6087451, “Design, Synthesis, and Biological Evaluation of 2-Arylaminopyrimidine Derivatives as Dual Cathepsin L and JAK Inhibitors for the Treatment of Acute Lung Injury” (J Med Chem, 2025).
Calls of active or inactive are those of the source. The calls are words filed in the database; no cut-off is given here.

What was measured:
[1] = (§1) Anti-inflammatory activity against HBE cells assessed as inhibition of LPS-induced IL-8 level at 5 uM pretreated for 30 mins followed by LPS treatment for 24 hrs by ELISA relative to control; assay type: functional; details: Homo sapiens, time 24.5 hrs
[2] = (§2) Anti-inflammatory activity against HBE cells assessed as inhibition of LPS-induced IL-6 level at 5 uM pretreated for 30 mins followed by LPS treatment for 24 hrs by ELISA relative to control; assay type: functional; details: Homo sapiens, time 24.5 hrs
HBE [3] = test: as §1; assay type: functional; details: Homo sapiens, time 24.5 hrs
[4] = Cytotoxicity against HBE cells assessed as cell survival at 10 uM by MTT assay relative to control; assay type: toxicity, cell-based; details: human; for viability at 10 µM: HBE cells, read-out: Survival
HBE [5] = test: as §2; assay type: functional; details: Homo sapiens, time 24.5 hrs

Structure (SMILES)	inhibition at 5 µM [1]	inhibition at 5 µM [2]	also measured
Nc1cccc(Nc2nccc(Nc3ccc(F)cc3)n2)c1	56%	54%	
COc1ccc(Nc2nccc(-c3cn(C)c4ccccc34)n2)cc1	56%	54%	
Cc1cccc(Nc2ccnc(Nc3cccc(N)c3)n2)c1C	56%	54%	
COc1ccccc1Nc1ccnc(Nc2cccc(N)c2)n1	56%	54%	
COc1ccc(Nc2ccnc(Nc3cccc(N)c3)n2)cc1	56%	54%	
Nc1cccc(Nc2nccc(Nc3cccc(C(F)(F)F)c3)n2)c1	56%	54%	
COc1cccc(Nc2nccc(-c3cn(C)c4ccccc34)n2)c1	56%	54%	
Cn1cc(-c2ccnc(Nc3cccc(C(=O)O)c3)n2)c2ccccc21	56%	54%	
Cn1cc(-c2ccnc(Nc3cc(N)ccc3F)n2)c2ccccc21	83%	69%	
Cn1cc(-c2ccnc(Nc3ccc(Cl)c(N)c3)n2)c2ccccc21	56%	54%	
CCCCNc1nccc(-c2cn(C)c3ccccc23)n1			inhibition (HBE [3]): inactive; viability at 10 µM [4]: < 70%; inhibition (HBE [5]): inactive
Cn1cc(-c2ccnc(NC3CCCCC3)n2)c2ccccc21			inhibition (HBE [3]): inactive; inhibition (HBE [5]): inactive
Cc1ccccc1Nc1ccnc(Nc2cccc(N)c2)n1	56%	54%	
COc1cccc(Oc2ccnc(Nc3cccc(N)c3)n2)c1	56%	54%	
COc1ccc(Oc2ccnc(Nc3cccc(N)c3)n2)cc1OC	56%	54%	
COc1c(Br)cccc1Nc1ccnc(Nc2cccc(N)c2)n1	56%	54%	
Nc1cccc(Nc2nccc(Oc3ccccc3)n2)c1	56%	54%	
Nc1cccc(Nc2nccc(Sc3ccc(F)cc3)n2)c1	56%	54%	
Cn1cc(-c2ccnc(NC3CC3)n2)c2ccccc21			inhibition (HBE [3]): inactive; viability at 10 µM [4]: < 70%; inhibition (HBE [5]): inactive
Cn1cc(-c2ccnc(Nc3ccc(F)c(N)c3)n2)c2ccccc21	56%	54%	
COc1cccc(Nc2ccnc(Nc3cccc(N)c3)n2)c1	56%	54%	
CC(C)(C)c1ccc(Nc2ccnc(Nc3cccc(N)c3)n2)cc1	56%	54%	
N#Cc1cccc(Nc2ccnc(Nc3cccc(N)c3)n2)c1	56%	54%	
Cn1cc(-c2ccnc(Nc3ccccn3)n2)c2ccccc21	56%	68%	viability at 10 µM [4]: < 70%
COc1ccc(N)cc1Nc1nccc(-c2cn(C)c3ccccc23)n1	54%	64%	

Structure (SMILES)	inhibition at 5 µM [1]	inhibition at 5 µM [2]	also measured
Cn1cc(-c2ccnc(Nc3cccc(O)c3)n2)c2ccccc21	56%	54%	
Nc1cccc(Nc2nccc(Nc3ccc(Cl)cc3)n2)c1	56%	54%	
Nc1cccc(Nc2nccc(Sc3ccc(C(F)(F)F)cc3)n2)c1	56%	54%	
Nc1cccc(Nc2nccc(Nc3ccc(F)c(F)c3)n2)c1	56%	54%	
Cn1cc(-c2ccnc(N)n2)c2ccccc21	38%	37%	
Cn1cc(-c2ccnc(Nc3cccc(C(F)(F)F)c3)n2)c2ccccc21	56%	54%	
Nc1ccc(Oc2ccnc(Nc3cccc(N)c3)n2)cc1	56%	54%	
Cc1ccc(Nc2ccnc(Nc3cccc(N)c3)n2)c(C)c1	56%	54%	
COc1ccccc1Oc1ccnc(Nc2cccc(N)c2)n1	56%	54%	
Cn1cc(-c2ccnc(Nc3ncccn3)n2)c2ccccc21	12%		inhibition (HBE [5]): inactive
COc1ccc(C)cc1Nc1ccnc(Nc2cccc(N)c2)n1	56%	54%	
Nc1cccc(Nc2nccc(Nc3cccc(Br)c3)n2)c1	56%	54%	
Nc1cccc(Nc2nccc(Sc3ccc(Cl)cc3)n2)c1	56%	54%	
Cn1cc(-c2ccnc(Nc3cccc(CC(=O)O)c3)n2)c2ccccc21	56%	54%	
Cn1nccc1Nc1nccc(-c2cn(C)c3ccccc23)n1	64%	54%	
Nc1cccc(Nc2nccc(-c3c[nH]c4ccccc34)n2)c1			inhibition (HBE [3]): Active; Activity ([4]; hbe, 10 µM): Toxic; inhibition (HBE [5]): Active
Nc1cccc(Nc2nccc(Oc3ccc4[nH]ccc4c3)n2)c1	> 65%	> 65%	
Nc1cccc(Nc2nccc(Oc3cccc(N)c3)n2)c1	56%	54%	
Nc1cccc(Nc2nccc(Nc3cccc(F)c3)n2)c1	56%	54%	
COc1ccc(Sc2ccnc(Nc3cccc(N)c3)n2)cc1	56%	54%	
Cc1ccc(Oc2nccc(-c3cn(C)c4ccccc34)n2)cc1			inhibition (HBE [3]): inactive; inhibition (HBE [5]): inactive
Nc1cccc(Nc2nccc(Nc3cccc(Cl)c3)n2)c1	56%	54%	
Nc1cccc(Nc2nccc(Nc3ccc(Br)cc3)n2)c1	56%	54%	
Cn1cc(-c2ccnc(Nc3cccc(F)c3)n2)c2ccccc21	56%	54%	
Cn1cc(-c2ccnc(Nc3ccc(F)cc3)n2)c2ccccc21	56%	54%	

Structure (SMILES)	inhibition at 5 µM [1]	inhibition at 5 µM [2]	also measured
Cn1cc(-c2ccnc(Nc3ccc(C(F)(F)F)cc3)n2)c2ccccc21	56%	54%	
Nc1cccc(Nc2nccc(N)n2)c1			inhibition (HBE [3]): inactive; inhibition (HBE [5]): inactive
COc1ccc(OC)c(Nc2ccnc(Nc3cccc(N)c3)n2)c1	56%	54%	
Cn1cc(-c2ccnc(Nc3cccc(Cl)c3)n2)c2ccccc21	56%	54%	
Cn1cc(-c2ccnc(Nc3ccccc3)n2)c2ccccc21		85%	inhibition (HBE [3]): inactive
Nc1cccc(Nc2nccc(Sc3ccc(Br)cc3)n2)c1	56%	54%	
COc1ccccc1Nc1nccc(-c2cn(C)c3ccccc23)n1		38%	inhibition (HBE [3]): inactive
CC(C)Nc1nccc(-c2cn(C)c3ccccc23)n1			inhibition (HBE [3]): inactive; inhibition (HBE [5]): inactive
Cn1cc(-c2ccnc(Nc3cccnc3)n2)c2ccccc21	56%	54%	viability at 10 µM [4]: < 70%
COc1cccc(Nc2ccnc(Nc3cccc(N)c3)n2)c1OC	56%	54%	
COc1ccc(Nc2ccnc(Nc3cccc(N)c3)n2)c(OC)c1	56%	54%	
Cn1cc(-c2ccnc(Nc3ccccc3N)n2)c2ccccc21	69%	61%	
Nc1cccc(Nc2nccc(Nc3ccc(C(F)(F)F)cc3)n2)c1	56%	54%	
COc1cc(OC)cc(Oc2ccnc(Nc3cccc(N)c3)n2)c1	56%	54%	
CCOc1ccc(Nc2ccnc(Nc3cccc(N)c3)n2)cc1	56%	54%	
Cn1cc(-c2ccnc(Nc3cccc(C#N)c3)n2)c2ccccc21	56%	54%	
Nc1cccc(Nc2nccc(Oc3ccc(OC(F)(F)F)cc3)n2)c1	56%	54%	
Cn1cc(-c2ccnc(Nc3ccc(N)cc3)n2)c2ccccc21	56%	54%	
COc1cccc(OC)c1Nc1ccnc(Nc2cccc(N)c2)n1	56%	54%	
Nc1cccc(Nc2nccc(Nc3ccc4[nH]ccc4c3)n2)c1	> 65%	> 65%	
Cn1ccc(Nc2nccc(-c3cn(C)c4ccccc34)n2)n1	56%	54%	
CN(c1cccc(N)c1)c1nccc(-c2cn(C)c3ccccc23)n1			inhibition (HBE [3]): inactive; inhibition (HBE [5]): inactive
Cn1cc(-c2ccnc(Nc3ccc(Cl)cc3)n2)c2ccccc21	56%	54%	
Nc1cccc(Nc2nccc(Nc3ccccc3)n2)c1	56%	54%	
